Source: paper PMC3340383, “Synthesis and Evaluation of a Series of 2-Substituted-5-Thiopropylpiperazine (Piperidine)-1,3,4-Oxadiazoles Derivatives as Atypical Antipsychotics” (PLoS ONE, 2012)
Read-outs that look alike come from different tables or passages of the source.

Legend:
[1] = molecular target: T1, serotonin 5-HT1A receptor (Rattus norvegicus, UniProt P19327); assay: 5-HT1A binding assay ([3H]8-OH-DPAT, rat brain cortex); details: read-out: Ki±SEM, 5HT1A
T1 construct: Rat cerebral cortex was homogenized in 20 volumes of ice-cold Tris-HCl buffer; from tissue; host or cells: rat brain (cerebral) cortex
T1 sequence (P19327 1-422): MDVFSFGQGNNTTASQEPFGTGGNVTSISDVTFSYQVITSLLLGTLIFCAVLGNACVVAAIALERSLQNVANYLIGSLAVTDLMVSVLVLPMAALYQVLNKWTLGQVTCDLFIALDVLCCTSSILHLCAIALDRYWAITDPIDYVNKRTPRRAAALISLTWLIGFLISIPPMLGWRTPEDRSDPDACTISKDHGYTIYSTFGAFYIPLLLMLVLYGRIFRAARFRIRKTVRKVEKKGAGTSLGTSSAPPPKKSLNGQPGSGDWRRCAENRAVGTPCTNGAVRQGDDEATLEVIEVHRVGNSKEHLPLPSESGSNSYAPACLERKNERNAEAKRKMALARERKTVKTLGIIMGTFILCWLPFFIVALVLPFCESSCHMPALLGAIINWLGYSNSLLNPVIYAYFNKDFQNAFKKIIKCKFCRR
Protocol: (§1) All the new compounds were dissolved in 5% DMSO. The following specific radioligands and tissue sources were used: (a) serotonin 5-HT1A receptor, [^3H]8-OH-DPAT, rat brain cortex; (b) serotonin 5-HT2A receptor, [^3H]ketanserin, rat brain cortex; (c) serotonin 5-HT2C receptor, [^3H]mesulergine, rat brain cortex; (d) dopamine D2 receptor, [^3H]spiperone, rat striatum; (e) dopamine D3 receptor, [^3H]spiperone, rat olfactory tubercle (f) histamine H1 receptor, [^3H] pyrilamine, guinea pig cerebellum.
(§2) Total binding was determined in the absence of no-specific binding and compounds. Specific binding was determined in the presence of compounds. Non-specific binding was determined as the difference between total and specific binding.
(§3) Percentage of inhibition (%) = (total binding − specific binding)×100%/(total binding − nonspecific binding).
(§4) Ki values were calculated based on the Cheng and Prussoff equation: Ki = IC50/(1+C/Kd) where C represents the concentration of the hot ligand used and Kd its receptor dissociation constant were calculated for each labeled ligand. Mean Ki values and SEM were reported for at least three independent experiments.
Rat cerebral cortex was homogenized in 20 volumes of ice-cold Tris-HCl buffer (50 mM, pH 7.7) using an ULTRA TURAX homogeniser, and was then centrifuged at 32000 g for 10 min. […] The final pellet was resuspended in Tris-HCl buffer containing 10 µM Pargyline, 4 mM CaCl2 and 0.1% ascorbic acid.
Total binding each assay tube was added 900 µL of the tissue suspension, 50 µL of 0.5 nM [^3H]8-OH-DPAT (187.4 Ci/mmol, Perkin Elmer Life Sciences, Boston, MA, USA), 50 µL Tris-HCl buffer containing 10 µM Pargyline, 4 mM CaCl2 and 0.1% ascorbic acid.
Non-specific binding each assay tube was added 900 µL of the tissue suspension, 50 µL of 0.5 nM [^3H]8-OH-DPAT, 50 µL of 10 µM serotonin.
Specific binding each assay tube was added 900 µL of the tissue suspension, 50 µL of 0.5 nM [^3H]8-OH-DPAT, 50 µL of new compounds or reference drug.
(§5) The incubation was followed by a rapid vacuum filtration through Whatman GF/B glass filters, and the filtrates were washed twice with 5mL cold buffer and transferred to scintillation vials. Scintillation fluid (3.0 mL) was added and the radioactivity bound was measured using a Beckman LS 6500 liquid scintillation counter.

[2] = molecular target: T2, serotonin 5-HT2A receptor (Rattus norvegicus, UniProt P14842); assay: 5-HT2A binding assay ([3H]ketanserin, rat brain cortex); details: read-out: Ki±SEM, 5HT2A
T2 construct: Rat cerebral cortex was homogenized in 20 volumes of ice-cold Tris-HCl buffer; from tissue; host or cells: rat brain (cerebral) cortex
Protocol: as §1, §2, §3, §4
Rat cerebral cortex was homogenized in 20 volumes of ice-cold Tris-HCl buffer (50 mM, pH 7.7) using an ULTRA TURAX homogeniser, and centrifuged at 32000 g for 20 min. The resulting pellet was resuspended in the same quantity of the buffer centrifuged for 20 min. The final pellet was resuspended in 50 volumes of the Tris-HCl buffer.
Total binding each assay tube was added 900 µL of the tissue suspension, 50 µL of 0.6 nM [^3H]ketanserin (60.0 Ci/mmol, Perkin Elmer Life Sciences, Boston, MA, USA), 50 µL Tris-HCl buffer.
Non-specific binding each assay tube was added 900 µL of the tissue suspension, 50 µL of 0.6 nM [^3H]ketanserin, 50 µL of 10 µM methisergide.
Specific binding each assay tube was added 900 µL of the tissue suspension, 50 µL of 0.6 nM [^3H]ketanserin, […] of new compounds or reference drug.
as §5, with “5 mL” for “5mL”

[3] = molecular target: T3, dopamine D2 receptor (Rattus norvegicus, UniProt P61169); assay: D2 dopaminergic binding assay ([3H]spiperone, rat striatum); details: read-out: Ki±SEM, D2
T3 construct: Rat striatum was homogenized in 20 volumes of ice-cold 50 mM Tris-HCl buffer; from tissue; host or cells: rat striatum
Protocol: as §1, §2, §3, §4
Rat striatum was homogenized in 20 volumes of ice-cold 50 mM Tris-HCl buffer (pH 7.7) using an ULTRA TURAX homogeniser, and centrifuged twice for 10 min at 48,000 g with resuspension of the pellet in fresh buffer. The final pellet was resuspended in 50 mM ice-cold Tris-HCl containing 120 mM NaCl, 5 mM KCl, 2 mM CaCl2, 1 mM MgCl2, 0.1% ascorbic acid and 5 µM pargyline.
Total binding each assay tube was added 900 µL of the tissue suspension, 50 µL of 0.5 nM [^3H]spiperone (16.2 Ci/mmol; Perkin Elmer Life Sciences, Boston, MA, USA), 50 µL Tris-HCl buffer containing 120 mM NaCl, 5 mM KCl, 2 mM CaCl2, 1 mM MgCl2, 0.1% ascorbic acid and 5 µM pargyline.
Non-specific binding each assay tube was added 900 µL of the tissue suspension, 50 µL of 0.5 nM [^3H]spiperone, 50 µL of 10 µM (+)-butaclamol.
Specific binding each assay tube was added 900 µL of the tissue suspension, 50 µL of 0.5 nM [^3H]spiperone, 50 µL of new compounds or reference drug.
as §5, with “5 mL” for “5mL”

[4] = [3H]8-OH-DPAT, rat brain cortex, mean of three experiments, >10000 marked b: Ki not calculated, inhibition at 10 µM too low
[5] = [3H]ketanserin, rat brain cortex, mean of three experiments, >10000 marked b: Ki not calculated, inhibition at 10 µM too low
[6] = [3H]spiperone, rat striatum, mean of three experiments, >10000 marked b: Ki not calculated, inhibition at 10 µM too low

T3 sequence (P61169 whole entry): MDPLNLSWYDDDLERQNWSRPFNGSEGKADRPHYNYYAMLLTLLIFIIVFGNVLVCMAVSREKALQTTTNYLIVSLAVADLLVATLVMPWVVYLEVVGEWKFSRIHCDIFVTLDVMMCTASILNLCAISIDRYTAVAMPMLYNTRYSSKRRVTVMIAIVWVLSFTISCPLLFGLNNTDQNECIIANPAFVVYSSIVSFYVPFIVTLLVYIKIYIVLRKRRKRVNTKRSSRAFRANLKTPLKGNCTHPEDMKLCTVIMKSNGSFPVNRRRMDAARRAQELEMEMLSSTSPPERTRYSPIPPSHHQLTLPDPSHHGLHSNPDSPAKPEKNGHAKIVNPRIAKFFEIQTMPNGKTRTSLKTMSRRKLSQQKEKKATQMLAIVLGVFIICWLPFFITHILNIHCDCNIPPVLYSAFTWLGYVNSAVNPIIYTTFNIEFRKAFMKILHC
T2 sequence (P14842 whole entry): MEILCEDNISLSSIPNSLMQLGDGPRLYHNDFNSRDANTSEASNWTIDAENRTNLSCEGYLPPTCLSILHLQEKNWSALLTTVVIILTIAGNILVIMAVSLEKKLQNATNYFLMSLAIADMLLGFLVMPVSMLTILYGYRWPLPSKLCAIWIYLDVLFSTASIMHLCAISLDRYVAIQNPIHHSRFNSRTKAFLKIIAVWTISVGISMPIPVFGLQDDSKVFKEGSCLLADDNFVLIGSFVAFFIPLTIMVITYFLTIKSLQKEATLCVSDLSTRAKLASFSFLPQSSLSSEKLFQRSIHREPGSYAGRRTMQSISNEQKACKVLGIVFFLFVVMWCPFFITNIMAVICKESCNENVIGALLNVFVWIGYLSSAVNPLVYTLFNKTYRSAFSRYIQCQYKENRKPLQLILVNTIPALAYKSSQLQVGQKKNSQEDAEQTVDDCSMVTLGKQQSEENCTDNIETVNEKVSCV

Ki [1, 4]	Ki [2, 5]	Ki [3, 6]	Compound	melting point	Ki [1]	Ki [2]	Ki [3]
			Cc1cccc(N2CCN(CCCSc3nnc(-c4ccccc4)o3)CC2)c1C [Compound 7, 2-((3-(4-(2,3-dimethylphenyl)piperazin-1-yl)propyl)thio)-5-phenyl-1,3,4-oxadiazole]	86 to 88 °C	> 10 µM	0.374 ± 0.033 µM	> 10 µM
			COc1ccccc1N1CCN(CCCSc2nnc(-c3ccccc3)o2)CC1 [Compound 8, 2-((3-(4-(2-methoxyphenyl)piperazin-1-yl)propyl)thio)-5-phenyl-1,3,4-oxadiazole]		> 10 µM	> 10 µM	> 10 µM
			Clc1cccc(N2CCN(CCCSc3nnc(-c4ccccc4)o3)CC2)c1Cl [Compound 9, 2-((3-(4-(2,3-dichlorophenyl)piperazin-1-yl)propyl)thio)-5-phenyl-1,3,4-oxadiazole]	82 to 84 °C	> 10 µM	> 10 µM	> 10 µM
			FC(F)(F)c1cccc(N2CCN(CCCSc3nnc(-c4ccccc4)o3)CC2)c1 [Compound 10, 2-((3-(4-(3-(trifluoromethyl)phenyl)piperazin-1-yl)propyl)thio)-5-phenyl-1,3,4-oxadiazole]	68 to 69 °C	> 10 µM	> 10 µM	> 10 µM
			c1ccc(-c2nnc(SCCCN3CCN(c4nsc5ccccc45)CC3)o2)cc1 [Compound 11, 2-((3-(4-(benzo[d]isothiazol-3-yl)piperazin-1-yl)propyl)thio)-5-phenyl-1,3,4-oxadiazole]	69 to 71 °C	0.019 ± 0.0023 µM	0.0614 ± 0.0058 µM	2.57 ± 0.321 µM
			Fc1ccc2c(C3CCN(CCCSc4nnc(-c5ccccc5)o4)CC3)noc2c1 [Compound 12, 2-(3-(4-(6-fluorobenzo[d]isoxazol-3-yl)piperidin-1-yl)propylthio)-5-phenyl-1,3,4-oxadiazole]	106 to 107 °C	0.0189 ± 0.0016 µM	0.0113 ± 0.0012 µM	2.97 ± 0.381 µM
> 10 µM	0.0172 ± 0.0016 µM	0.0967 ± 0.0095 µM	COc1ccc(-c2nnc(SCCCN3CCN(c4nsc5ccccc45)CC3)o2)cc1 [Compound 13, 2-((3-(4-(benzo[d]isothiazol-3-yl)piperazin-1-yl)propyl)thio)-5-(4-methoxyphenyl)-1,3,4-oxadiazole]				
0.0142 ± 0.0013 µM	0.0272 ± 0.0028 µM	0.126 ± 0.0135 µM	Clc1ccc(-c2nnc(SCCCN3CCN(c4nsc5ccccc45)CC3)o2)cc1 [Compound 15, 2-((3-(4-(benzo[d]isothiazol-3-yl)piperazin-1-yl)propyl)thio)-5-(4-chlorophenyl)-1,3,4-oxadiazole]				
> 10 µM	0.0508 ± 0.0053 µM	0.487 ± 0.0463 µM	FC(F)(F)c1ccc(-c2nnc(SCCCN3CCN(c4nsc5ccccc45)CC3)o2)cc1 [Compound 17, 2-((3-(4-(benzo[d]isothiazol-3-yl)piperazin-1-yl)propyl)thio)-5-(4-(trifluoromethyl)phenyl)-1,3,4-oxadiazole]				
			Fc1ccc2c(C3CCN(CCCSc4nnc(-c5ccc(C(F)(F)F)cc5)o4)CC3)noc2c1 [Compound 18, 2-(3-(4-(6-fluorobenzo[d]isoxazol-3-yl)piperidin-1-yl)propylthio)-5-(4-(trifluoromethyl)phenyl)-1,3,4-oxadiazole]	122 to 124 °C	0.051 ± 0.0049 µM	0.0247 ± 0.0028 µM	0.0945 ± 0.0089 µM
> 10 µM	> 10 µM	> 10 µM	Fc1ccc(-c2nnc(SCCCN3CCN(c4nsc5ccccc45)CC3)o2)cc1 [Compound 19, 2-(3-(4-(benzo[d]isothiazol-3-yl)piperazin-1-yl)propylthio)-5-(4-fluorophenyl)-1,3,4-oxadiazole]				
0.0148 ± 0.0015 µM	0.0158 ± 0.0013 µM	0.125 ± 0.0124 µM	Fc1ccc(-c2nnc(SCCCN3CCC(c4noc5cc(F)ccc45)CC3)o2)cc1 [Compound 20, 2-(3-(4-(6-fluorobenzo[d]isoxazol-3-yl)piperidin-1-yl)propylthio)-5-(4-fluorophenyl)-1,3,4-oxadiazole]				
0.346 ± 0.0359 µM	0.114 ± 0.0121 µM	0.138 ± 0.0136 µM	c1ccc2c(-c3nnc(SCCCN4CCN(c5nsc6ccccc56)CC4)o3)cccc2c1 [Compound 21, 2-(3-(4-(benzo[d]isothiazol-3-yl)piperazin-1-yl)propylthio)-5-(naphthalen-1-yl)-1,3,4-oxadiazole]				
0.45 ± 0.0498 µM	0.0541 ± 0.0069 µM	> 10 µM	c1csc(-c2nnc(SCCCN3CCN(c4nsc5ccccc45)CC3)o2)c1 [Compound 23, 2-(3-(4-(benzo[d]isothiazol-3-yl)piperazin-1-yl)propylthio)-5-(thiophen-2-yl)-1,3,4-oxadiazole]				
0.0966 ± 0.0103 µM	0.0503 ± 0.0065 µM	0.091 ± 0.0112 µM	Fc1ccc2c(C3CCN(CCCSc4nnc(-c5cccs5)o4)CC3)noc2c1 [Compound 24, 2-(3-(4-(6-fluorobenzo[d]isoxazol-3-yl)piperidin-1-yl)propylthio)-5-(thiophen-2-yl)-1,3,4-oxadiazole]				
			c1ccc2c(N3CCN(CCCSc4nnc(-c5ccncc5)o4)CC3)nsc2c1 [Compound 25, 2-(3-(4-(benzo[d]isothiazol-3-yl)piperazin-1-yl)propylthio)-5-(pyridin-4-yl)-1,3,4-oxadiazole]	93 to 94 °C	> 10 µM	0.39 ± 0.0365 µM	> 10 µM
0.0606 ± 0.0086 µM	0.0592 ± 0.0076 µM	0.26 ± 0.0321 µM	Fc1ccc2c(C3CCN(CCCSc4nnc(-c5ccncc5)o4)CC3)noc2c1 [Compound 26, 2-(3-(4-(6-fluorobenzo[d]isoxazol-3-yl)piperidin-1-yl)propylthio)-5-(pyridin-4-yl)-1,3,4-oxadiazole]				
